Patent EP2386565A2, “Compounds and methods to inhibit or augment an inflammatory response” (Cambridge Enterprise Ltd., priority 1999, dated 2000)
Positions of bridges follow the written chain, without caps; N, C: chain ends. Non-standard residues stand in square brackets, D forms with d. Residues, ends and D or L forms follow the SMILES beside them.

Tests used:
[1] = Stability against acid hydrolysis; type: physicochemical; details: pH 2.0 for 2 hrs at 37°C
Text: For example, to prepare a peptide 3 derivative, peptide 3(3-12)[MCP-1] was modified according to Jameson et al. (Nature, 368, 744 (1994)), which yielded CRD-Cys13Leu4Ile11peptide 3(3-12)[MCP-1] (Figure 3).

[2] = tested on: MCP-1 induced calcium flux; assay: Intracellular calcium flux, MCP-1 as agonist; type: cell-based
focal ischemic lesion = assay: Intraluminal thread model of ischaemia reperfusion injury (MCAo 90 minutes); type: in vivo, rats
Procedure: The intraluminal thread (ILT) model is representative of clinical ischaemia reperfusion injury, it gives a focal ischemic lesion and is widely used in the pharmaceutical industry to test candidate compounds for neuroprotective efficacy. Fed, male Sprague Dawley rats (Charles Rivers, approximately 330 g) were anaesthetized with 2% halothane in 70/30 % N2O/O2 and the left middle cerebral artery occluded (MCAo) for 90 minutes using the ILT approach. The MCAo is achieved by the placement of a 3/0 nylon suture into the internal carotid artery and advancing it approximately 18 mm from the carotid bifurcation such that its tip is positioned approximately 1 mm beyond the origin of the MCA. […]
Throughout the surgical period, rectal temperature was monitored and maintained at 37°C with a heated blanket and feedback rectal temperature probe and arterial blood gases were measured prior to and immediately post MCAo. […]
The ischemic damage was assessed by conventional magnetic resonance imaging (T2, diffusion and proton density sequences) on day 1, 2 and 3 post MCAo. […]
After the final MR analysis at 72 hour post ictus the rats were decapitated, the brains removed, stored fresh in cryo-protecting medium at -70°C prior to quantitative immunohistochemical analysis of infiltrating leukocytes (Figure 34). […]

[3] = 8.8 mg i.v. bolus
[4] = tested on: IL8 induced human monocyte migration; assay: Migration of freshly prepared peripheral blood monocytes, IL8; type: cell-based
Procedure: (§1) Agents may also be screened in a chemotactic assay which employs human neutrophils, eosinophils, mast cells, basophils, platelets, lymphocytes or monocytes. For monocytes, 9 mls of fresh blood are transferred to a tube containing 1 ml of 3.8% sodium citrate, and left at room temperature for 15 minutes. Five mls of this anti-coagulated blood are carefully layered over 3.5 ml Polymorphprep® (Nycomed Pharma, Oslo), and centrifuged at 500 g for 35 minutes per the manufacturer's instructions. The top band at the sample/medium interface contains monocytes. The monocytes are carefully removed with a glass pipette, and reconstituted to the original volume (5 ml). The cells are washed with PBS plus 10% fetal calf serum, and centrifuged at 400 g for 10 minutes. The washing step is repeated three times before the cells are counted. Cells are resuspended at 1 × 10^7 cells/ml in RPMI-1640 + 10% fetal calf serum (FCS). The monocytes are cultured for two days at 37°C in a humidified atmosphere of 5% CO2-
(§2) On day 2, the cells are counted, spun down, and reconstituted to 1 × 10^7 cells/ml in Gey's balanced salt solution + 1 mg/ml bovine serum albumin (BSA). […]

[5] = tested on: SDF-1α induced human monocyte migration; assay: Migration of freshly prepared peripheral blood monocytes, SDF-1α; type: cell-based
Procedure: as §1, §2

Compound	degradation by acid hydrolysis [1]	MCP-1 induced calcium flux (in words) [2]	reduction in the mean infarct volume (focal ischemic lesion; 2 mg/kg bolus, then 0.5 mg/kg/hr i.v. for 72 hours, all time points, p < 0.0001)	neutrophil accumulation in the penumbra of the lesion (in words) (focal ischemic lesion; rat, in vivo)	time until serum concentrations decline below LLOQ (in words) [3]	% inhibition at 100 µM versus IL8 [4]	% inhibition at 100 µM versus SDF-1α [5]
CC[C@@H](C)[C@H]1NC(=O)[C@@H](CCC(N)=O)NC(=O)[C@H](N)CSSC[C@H](C(N)=O)NC(=O)[C@@H](CC(C)C)NC(=O)[C@@H](CC(=O)O)NC(=O)[C@H]2CCCN2C(=O)[C@@H](CCCCN)NC(=O)[C@@H](CCC(N)=O)NC(=O)[C@@H](CCCCN)NC(=O)[C@@H](Cc2c[nH]c3ccccc23)NC1=O (H-[dC][dQ][dI][dW][dK][dQ][dK][dP][dD][dL][dC]-NH2; disulfide 1-11)	< 10%	did not block	50%	complete suppression	within four hours	–	–
CC[C@H](C)[C@H](NC(=O)[C@H](C)NC(=O)[C@H](CC(=O)O)NC(=O)[C@@H]1CCCN1C(=O)[C@H](CCC(N)=O)NC(=O)[C@H](C)N)C(=O)N[C@@H](CC(N)=O)C(=O)N[C@@H](C)C(=O)N1CCC[C@H]1C(=O)N[C@H](C(=O)N[C@H](C(=O)N[C@@H](CS)C(=O)N[C@@H](CS)C(=O)O)[C@@H](C)O)C(C)C [Peptide 1] (H-AQPDAINAPVTCC-OH; N-terminus and C-terminus assumed)	–	–	–	–	–	n.s.	n.s.
